Literature values, collected in patent US20130315934A1, “Methods and Compositions for Assessing and Treating Cancer” (Yale University, priority 2010, published 2013).

How the values were obtained:
[1] = system: YUHEF melanoma cells harboring ACK1-S212L; conditions: cell culture
[2] = system: YULOVY melanoma cells possessing the S522I variant; conditions: cell culture, YULOVY melanoma cells (ACK1 S522I variant)
purified ACK1 = purified ACK1 (Homo sapiens, UniProt Q07912); conditions: in vitro, purified enzyme
Chain of purified ACK1 (Q07912 whole entry): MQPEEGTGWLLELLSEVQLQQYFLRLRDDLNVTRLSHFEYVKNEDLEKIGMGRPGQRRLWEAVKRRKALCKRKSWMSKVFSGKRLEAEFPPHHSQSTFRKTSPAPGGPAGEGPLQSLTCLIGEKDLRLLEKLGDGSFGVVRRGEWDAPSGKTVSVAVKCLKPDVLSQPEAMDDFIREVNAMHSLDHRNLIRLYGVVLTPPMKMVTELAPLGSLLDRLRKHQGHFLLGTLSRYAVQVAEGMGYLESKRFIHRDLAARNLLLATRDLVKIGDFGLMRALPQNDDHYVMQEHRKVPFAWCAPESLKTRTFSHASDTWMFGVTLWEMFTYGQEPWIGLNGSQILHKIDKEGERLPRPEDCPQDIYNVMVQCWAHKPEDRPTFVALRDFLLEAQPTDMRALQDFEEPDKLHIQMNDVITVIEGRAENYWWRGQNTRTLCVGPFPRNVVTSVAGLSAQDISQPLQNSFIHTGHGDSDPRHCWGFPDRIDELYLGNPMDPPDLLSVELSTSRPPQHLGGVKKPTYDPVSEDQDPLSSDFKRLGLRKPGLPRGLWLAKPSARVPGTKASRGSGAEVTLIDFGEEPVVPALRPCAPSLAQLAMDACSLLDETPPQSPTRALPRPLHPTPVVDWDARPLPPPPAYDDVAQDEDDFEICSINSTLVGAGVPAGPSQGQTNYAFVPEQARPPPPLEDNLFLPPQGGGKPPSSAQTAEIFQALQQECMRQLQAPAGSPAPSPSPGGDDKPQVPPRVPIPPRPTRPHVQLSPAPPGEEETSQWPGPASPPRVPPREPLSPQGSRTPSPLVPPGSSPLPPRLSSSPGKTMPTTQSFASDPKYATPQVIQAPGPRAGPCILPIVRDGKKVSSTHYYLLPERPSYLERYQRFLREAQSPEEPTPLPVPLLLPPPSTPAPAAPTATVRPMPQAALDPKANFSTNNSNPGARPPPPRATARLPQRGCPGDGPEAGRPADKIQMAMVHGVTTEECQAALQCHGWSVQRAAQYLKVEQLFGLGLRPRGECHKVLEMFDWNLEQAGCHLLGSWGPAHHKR

PAK-4 = PAK-4 (Homo sapiens, UniProt O96013); conditions: PAK family members
Chain of PAK-4 (O96013 whole entry): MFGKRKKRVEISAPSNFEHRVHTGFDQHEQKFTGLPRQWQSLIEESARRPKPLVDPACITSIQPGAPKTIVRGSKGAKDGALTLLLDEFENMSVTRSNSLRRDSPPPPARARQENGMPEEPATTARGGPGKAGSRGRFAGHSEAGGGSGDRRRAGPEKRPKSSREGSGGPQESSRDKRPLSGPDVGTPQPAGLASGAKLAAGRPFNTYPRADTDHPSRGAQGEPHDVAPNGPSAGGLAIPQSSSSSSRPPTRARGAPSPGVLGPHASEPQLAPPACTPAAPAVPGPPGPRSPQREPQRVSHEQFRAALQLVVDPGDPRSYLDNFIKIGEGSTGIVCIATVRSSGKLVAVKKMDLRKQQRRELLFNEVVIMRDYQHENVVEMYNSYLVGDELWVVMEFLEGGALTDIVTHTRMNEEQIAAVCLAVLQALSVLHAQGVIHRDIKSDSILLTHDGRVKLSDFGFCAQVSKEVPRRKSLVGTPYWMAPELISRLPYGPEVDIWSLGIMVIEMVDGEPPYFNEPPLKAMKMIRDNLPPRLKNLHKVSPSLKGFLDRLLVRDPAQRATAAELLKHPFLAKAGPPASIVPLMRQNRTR

PAK family selectivity of inhibition (PAK-4) | Compound | inhibition of proliferation [1] | inhibition of proliferation [2] | inhibition of purified ACK1 (purified ACK1)
 | CCCS(=O)(=O)Nc1ccc(F)c(C(=O)c2c[nH]c3ncc(-c4ccc(Cl)cc4)cc23)c1F [PLX4032] | did not inhibit the proliferation | did not inhibit the proliferation | highly effective in vitro inhibitor
inhibit only PAK-4 | Cc1nc(Nc2[nH]nc3c2CN(C(=O)N[C@H](CN(C)C)c2ccccc2)C3(C)C)c2sccc2n1 [PF-3758309] |  |  | 
